# Read-outs that look alike come from different tables or passages of the source.
# Legend:
# Type in all cases: cell-based, human
# THP-1 cells [1] = experiment: Cytokine production by differentiated THP-1 cells after SP-A, bleomycin or Ara-C (ELISA); settings: for TNF-α level in culture medium: mean±SEM, FIG. 3A
# Description: (§1) The THP-1 cell line was obtained from the American Type Culture Collection. Cells were grown in RPMI 1640 medium (Sigma) with 0.05 mM 2-mercaptoethanol containing 10% fetal calf serum (FCS; Summit Biotechnology) at 37° C. in an atmosphere of 5% CO2. The cells were split periodically and used at passages 8–15 in the various experiments. After differentiation with 10^−8 M Vitamin D3 for 72 h, cells were pelleted and washed with cold PBS. The cell pellet was then resuspended in complete RPMI 1640 medium with 10% FCS at a density of 2×10^6 cells/ml in 24-well culture plates, and exposed to bleomycin and SP-A. Cell viability was determined by trypan blue exclusion. […] Incubations were terminated by pelleting the cells. Supernatants and/or cell pellet were stored at −80° C. until assayed.
# (§2) After differentiation with 10^−8 M of vitamin D3 for 72 h, THP-1 cells were pelleted and washed as described above. Cells at a density of 2×10^6 cells/ml were incubated at 24 well culture plates. For dose-response study, cells were stimulated with bleomycin at concentrations ranging from 0–100 mU/ml. Time-dependent secretion of cytokines following bleomycin treatment was studied from 0–24 h with 5 and 50 mU/ml of bleomycin. In experiments where the combined effects of SP-A and bleomycin were examined, SP-A (10 μg/ml) and bleomycin (5 or 50 mU/ml) were added to cells simultaneously, unless otherwise noted. After treatment, the culture medium was collected at 4 h or 6 h for the ELISA assay of cytokine production and cells were harvested at 2 h or 4 h for cytokine mRNA analysis.
# Cytosine arabinoside (Ara-C, Cytosar-U, Pharmacia & Upjohn) was included in some experiments to confirm the specificity of the effect of bleomycin on proinflammatory cytokine production by THP-1 cells. Ara-C is another antineoplastic agent with known cytotoxicity. […] Ara-C, at concentrations ranging from 0.1 to 5 mM in culture medium, was used for evaluating the effect of Ara-C on TNF-α. The conditions employed in the Ara-C experiments were the same as those in bleomycin studies except that only a 4 h time point was done.
# The ELISA assays for TNF-α, IL-8, and IL-1β (OptEIA Human ELISA Sets, Pharmingen) were performed according to the instructions recommended by the manufacturer. The ELISA kits were capable of measuring levels of 7.8–500 pg/ml for TNF-α, 6.2–400 pg/ml for IL-8 and 20–1000 pg/ml for IL-1β. A reference curve for each of these cytokines was obtained by plotting the concentration of several dilutions of standard protein versus the corresponding absorbance.
# THP-1 cells [2] = experiment: Cytokine mRNA in THP-1 cells by ribonuclease protection assay (RPA); settings: for relative intensity of TNF-α mRNA / IL-8 mRNA level: SP-A 10 μg/ml and/or bleomycin 5 mU/ml, normalized to L32; for relative intensity of TNF-α mRNA: FIG. 4A; for IL-8 mRNA level: 4 h, FIG. 4B
# Description: as §2
# Total RNA was isolated from THP-1 cells at 2 h or 4 h after treatment by using Rneasy Mini Kits (QIAGEN) according to the protocol of the RNeasy Mini Handbook. Cytokine mRNA quantification was performed by ribonuclease protection assay (RPA). RiboQuant™ Ribonuclease RPA Starter Package and a Customized Human Template Set (Pharmingen) were used to analyze TNF-α, IL-1β, and IL-8 mRNA in one assay. The customized template set contains DNA templates that can be used for T7 RNA polymerase-directed synthesis of α-^32P-UTP-labeled, anti-sense RNA probes. These can be hybridized to TNF-α, IL-1β, and IL-8 mRNA. Templates for the L32 and GAPDH housekeeping genes were also included to allow for normalization of sampling or technical error. Aliquots of 2 μg of total RNA were hybridized with radiolabeled probes at 56° C. for 16 h. RNase treatment followed, resulting in degradation of single-stranded RNA and free probes. After inactivation and precipitation, protected probes were resolved by a 5% polyacrylamide-urea sequence gel electrophoresis and visualized by autoradiography. Densities of the protected bands were quantified by soft laser densitometry. The mRNA level is expressed as the ratio of the densitometric value of each cytokine mRNA to that of the L32 or GAPDH mRNA.
# THP-1 cells [3] = experiment: Cell viability by trypan blue exclusion
# Description: as §1
# [4] = SP-A 10 μg/ml and/or bleomycin 5 mU/ml, 4 h
Molecule,"TNF-α level after Ara-C treatment versus control (THP-1 cells [1]; Ara-C 0.1 to 5 mM, 4 h, FIG. 1D)",relative intensity of TNF-α mRNA (THP-1 cells [2]; 2 h),IL-8 mRNA level (THP-1 cells [2]),TNF-α level in culture medium (THP-1 cells [1]; [4]) [pg/mL],effect on the viability of THP-1 cells (THP-1 cells [3]),"relative intensity of IL-1β mRNA (THP-1 cells [2]; 2 h, SP-A 10 μg/ml, bleomycin 5 mU/ml, LPS 0.1 ng/ml)","lowest bleomycin concentration that increased TNF-α level (THP-1 cells [1]; 4 h, dose range 0–100 mU/ml, FIG. 1A) [mU/ml]","lowest bleomycin concentration that increased IL-8 level (THP-1 cells [1]; 4 h, dose range 0–100 mU/ml, FIG. 1B) [mU/ml]","bleomycin concentration needed to increase IL-1β level significantly (THP-1 cells [1]; 6 h, dose range 0–100 mU/ml, FIG. 1C) [mU/ml]","time to maximum TNF-α level (THP-1 cells [1]; bleomycin 5, 50 mU/ml, depending on dose, FIG. 2A) [h]","time at which increase of TNF-α levels was detected (THP-1 cells [1]; bleomycin 5, 50 mU/ml, 0–24 h, FIG. 2A) [h]","time at which TNF-α returned to background levels (THP-1 cells [1]; bleomycin 5, 50 mU/ml, FIG. 2A) [h]","time to maximal IL-8 level (THP-1 cells [1]; bleomycin 5, 50 mU/ml, FIG. 2B)","time to peak IL-1β level (THP-1 cells [1]; bleomycin 5, 50 mU/ml, FIG. 2C) [h]","TNF-α level in culture medium (THP-1 cells [1]; bleomycin 50 mU/ml with or without SP-A 10 μg/ml, 4 h) [pg/mL]",effect on the viability of THP-1 cells (THP-1 cells [3]; conditions employed in this study)
"Nc1ccn([C@@H]2O[C@H](CO)[C@@H](O)[C@@H]2O)c(=O)n1 [Ara-C, Cytosine arabinoside]",did not differ from that of control,–,–,–,–,–,–,–,–,–,–,–,–,–,–,–
SP-A: native human surfactant protein A purified from bronchoalveolar lavage of alveolar proteinosis patients,–,0.51±0.27,1.26±0.14,86.6 ± 11.5,neither bleomycin nor SP-A appeared to have any effect,–,–,–,–,–,–,–,–,–,–,–
bleomycin,–,0.74±0.20,1.02±0.16,45.9 ± 10.6,–,Very low levels,0.5,0.5,50,4 to 6,3,24,around 5 h,10,82.1 ± 17.3,neither bleomycin nor SP-A appeared to have any effect

# Reference: US7041638B2, “Surfactant prevention of vaginitis and lung complications from cancer chemotherapy” (The Penn State Research Foundation, priority 2001, dated 2006)
